Experimental data: ChEMBL document CHEMBL1201862, “PubChem BioAssay data set” (2004)
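Cells were grown in 96-well plates and exposed to each compound for 48 hours at five concentrations; endpoints were interpolated linearly between bracketing concentrations, or set to the highest concentration if not reached. GI50 marks 50% less growth.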 Calls of active or inactive are those of the source. Cut-off read from the data, not from the text of the source: active = GI50 up to about 1.1 µM and inactive = higher.

Tests used:
Assay in all cases: growth of human tumour cells (NCI), 48 h
[1] = tested on: 786-0
[2] = tested on: A498
[3] = tested on: ACHN
[4] = tested on: BT-549
[5] = tested on: CAKI-1
[6] = tested on: CCRF-CEM
[7] = tested on: COLO 205
[8] = tested on: DU-145
[9] = tested on: EKVX
[10] = tested on: HCC 2998
[11] = tested on: HCT-116
[12] = tested on: HCT-15
[13] = tested on: HL-60
[14] = tested on: HOP-62
[15] = tested on: HT-29
[16] = tested on: Hs-578T
[17] = tested on: IGROV-1
[18] = tested on: K562
[19] = tested on: KM12
[20] = tested on: LOX IMVI
[21] = tested on: MCF7
[22] = tested on: MDA-MB-435
[23] = tested on: MDA-N
[24] = tested on: MOLT-4
[25] = tested on: Malme-3M
[26] = tested on: NCI-H23
[27] = tested on: NCI-H460
[28] = tested on: NCI-H522
[29] = tested on: NCI/ADR-RES
[30] = tested on: OVCAR-3
[31] = tested on: OVCAR-4
[32] = tested on: OVCAR-5
[33] = tested on: OVCAR-8
[34] = tested on: PC-3
[35] = tested on: RPMI-8226
[36] = tested on: SF-268
[37] = tested on: SF-295
[38] = tested on: SF-539
[39] = tested on: SK-MEL-28
[40] = tested on: SK-MEL-2
[41] = tested on: SK-MEL-5
[42] = tested on: SK-OV-3
[43] = tested on: SR
[44] = tested on: SW-620
[45] = tested on: T47D
[46] = tested on: U-251
[47] = tested on: UACC-257
[48] = tested on: UACC-62
[49] = tested on: A549
[50] = tested on: HOP-92
[51] = tested on: M14
[52] = tested on: MDA-MB-231
[53] = tested on: NCI-H226
[54] = tested on: RXF 393
[55] = tested on: SN12C
[56] = tested on: SNB-19
[57] = tested on: SNB-75
[58] = tested on: TK-10
[59] = tested on: UO-31

## O=C(Nc1ccccc1)Oc1ccc(C(=S)Nc2ccc(Br)cc2)cc1
[1]
  GI50: 19.4 µM (inactive)
[2]
  GI50: 19.1 µM (inactive)
[3]
  GI50: 23.3 µM (inactive)
[4]
  GI50: 12.8 µM (inactive)
[5]
  GI50: 15.3 µM (inactive)
[6]
  GI50: 8.57 µM (inactive)
[7]
  GI50: 17.2 µM (inactive)
[8]
  GI50: 31.5 µM (inactive)
[9]
  GI50: 5.13 µM (inactive)
[10]
  GI50: 21.6 µM (inactive)
[11]
  GI50: 17.3 µM (inactive)
[12]
  GI50: 16.2 µM
[13]
  GI50: 8.13 µM (inactive)
[14]
  GI50: 28.6 µM (inactive)
[15]
  GI50: 16.8 µM (inactive)
[16]
  GI50: 22.9 µM (inactive)
[17]
  GI50: 6.43 µM (inactive)
[18]
  GI50: 21.5 µM (inactive)
[19]
  GI50: 12.8 µM (inactive)
[20]
  GI50: 11.9 µM (inactive)
[21]
  GI50: 19.1 µM (inactive)
[22]
  GI50: 16.9 µM (inactive)
[23]
  GI50: 18.9 µM (inactive)
[24]
  GI50: 13.4 µM (inactive)
[25]
  GI50: 19.2 µM (inactive)
[26]
  GI50: 17.5 µM (inactive)
[27]
  GI50: 16.9 µM (inactive)
[28]
  GI50: 11 µM (inactive)
[29]
  GI50: 15.3 µM (inactive)
[30]
  GI50: 18.9 µM (inactive)
[31]
  GI50: 14.3 µM (inactive)
[32]
  GI50: 16.6 µM (inactive)
[33]
  GI50: 12.6 µM (inactive)
[34]
  GI50: 22.6 µM (inactive)
[35]
  GI50: 36.6 µM (inactive)
[36]
  GI50: 16.4 µM (inactive)
[37]
  GI50: 20.6 µM (inactive)
[38]
  GI50: 18.6 µM (inactive)
[39]
  GI50: 19.4 µM (inactive)
[40]
  GI50: 18.3 µM (inactive)
[41]
  GI50: 16 µM (inactive)
[42]
  GI50: 34.5 µM (inactive)
[43]
  GI50: 13.4 µM (inactive)
[44]
  GI50: 24.5 µM (inactive)
[45]
  GI50: 22.2 µM (inactive)
[46]
  GI50: 19.5 µM (inactive)
[47]
  GI50: 20.5 µM (inactive)
[48]
  GI50: 11 µM (inactive)

## O=C1CCCCC1CN1CCCCC1 (configuration not stated)
[1]
  GI50: > 100 µM (inactive)
[2]
  GI50: > 100 µM (inactive)
[49]
  GI50: > 100 µM (inactive)
[3]
  GI50: > 100 µM (inactive)
[4]
  GI50: > 100 µM (inactive)
[5]
  GI50: > 100 µM (inactive)
[6]
  GI50: > 100 µM (inactive)
[7]
  GI50: > 100 µM (inactive)
[8]
  GI50: > 100 µM (inactive)
[9]
  GI50: > 100 µM (inactive)
[10]
  GI50: > 100 µM (inactive)
[11]
  GI50: > 100 µM (inactive)
[12]
  GI50: > 100 µM
[13]
  GI50: > 100 µM (inactive)
[14]
  GI50: > 100 µM (inactive)
[50]
  GI50: > 100 µM (inactive)
[15]
  GI50: > 100 µM (inactive)
[16]
  GI50: > 100 µM (inactive)
[17]
  GI50: > 100 µM (inactive)
[18]
  GI50: > 100 µM (inactive)
[19]
  GI50: > 100 µM (inactive)
[20]
  GI50: > 100 µM (inactive)
[51]
  GI50: > 100 µM (inactive)
[21]
  GI50: > 100 µM (inactive)
[52]
  GI50: > 100 µM (inactive)
[22]
  GI50: > 100 µM (inactive)
[23]
  GI50: > 100 µM (inactive)
[24]
  GI50: > 100 µM (inactive)
[25]
  GI50: > 100 µM (inactive)
[53]
  GI50: > 100 µM (inactive)
[26]
  GI50: > 100 µM (inactive)
[27]
  GI50: > 100 µM (inactive)
[28]
  GI50: 1.91 µM (inactive)
[29]
  GI50: > 100 µM (inactive)
[30]
  GI50: > 100 µM (inactive)
[31]
  GI50: > 100 µM (inactive)
[32]
  GI50: > 100 µM (inactive)
[33]
  GI50: > 100 µM (inactive)
[34]
  GI50: > 100 µM (inactive)
[54]
  GI50: > 100 µM (inactive)
[36]
  GI50: > 100 µM (inactive)
[37]
  GI50: > 100 µM (inactive)
[38]
  GI50: > 100 µM (inactive)
[39]
  GI50: > 100 µM (inactive)
[40]
  GI50: > 100 µM (inactive)
[41]
  GI50: > 100 µM (inactive)
[42]
  GI50: > 100 µM (inactive)
[55]
  GI50: > 100 µM (inactive)
[56]
  GI50: > 100 µM (inactive)
[57]
  GI50: > 100 µM (inactive)
[43]
  GI50: 8.89 µM (inactive)
[44]
  GI50: > 100 µM (inactive)
[58]
  GI50: > 100 µM (inactive)
[46]
  GI50: > 100 µM (inactive)
[48]
  GI50: > 100 µM (inactive)
[59]
  GI50: > 100 µM (inactive)

## Cc1cccc(N/C(=C(/C(Cl)=C(Cl)Cl)[N+](=O)[O-])n2nnc3ccccc32)c1
[1]
  GI50: 19.5 µM (inactive)
[2]
  GI50: 12.5 µM (inactive)
[49]
  GI50: 18 µM (inactive)
[3]
  GI50: 24.3 µM (inactive)
[4]
  GI50: 18.6 µM (inactive)
[5]
  GI50: 17.5 µM (inactive)
[6]
  GI50: 2.96 µM (inactive)
[7]
  GI50: 17.1 µM (inactive)
[9]
  GI50: 18.6 µM (inactive)
[10]
  GI50: 29.2 µM (inactive)
[11]
  GI50: 18.9 µM (inactive)
[12]
  GI50: 18.4 µM
[14]
  GI50: 18 µM (inactive)
[15]
  GI50: 17.3 µM (inactive)
[16]
  GI50: 4.91 µM (inactive)
[18]
  GI50: 35 µM (inactive)
[19]
  GI50: 14.9 µM (inactive)
[51]
  GI50: 21.9 µM (inactive)
[21]
  GI50: 21.6 µM (inactive)
[52]
  GI50: 13.3 µM (inactive)
[22]
  GI50: 20.4 µM (inactive)
[23]
  GI50: 23.5 µM (inactive)
[24]
  GI50: 88.3 µM (inactive)
[25]
  GI50: 14.9 µM (inactive)
[53]
  GI50: 12.9 µM (inactive)
[26]
  GI50: 16.8 µM (inactive)
[27]
  GI50: 20.7 µM (inactive)
[29]
  GI50: 19.7 µM (inactive)
[30]
  GI50: 15.3 µM (inactive)
[31]
  GI50: 19.5 µM (inactive)
[32]
  GI50: 16.6 µM (inactive)
[33]
  GI50: 16.5 µM (inactive)
[34]
  GI50: 16.6 µM (inactive)
[35]
  GI50: 13.7 µM (inactive)
[36]
  GI50: 15.9 µM (inactive)
[37]
  GI50: 16.9 µM (inactive)
[38]
  GI50: 15.8 µM (inactive)
[39]
  GI50: 14.9 µM (inactive)
[40]
  GI50: 19.1 µM (inactive)
[42]
  GI50: 21.3 µM (inactive)
[55]
  GI50: 15.5 µM (inactive)
[56]
  GI50: 18.2 µM (inactive)
[44]
  GI50: 15.8 µM (inactive)
[45]
  GI50: 22.1 µM (inactive)
[46]
  GI50: 14 µM (inactive)
[47]
  GI50: 22 µM (inactive)
[48]
  GI50: 15.5 µM (inactive)
[59]
  GI50: 16.5 µM (inactive)
